Key:
Format in all cases: cell-based
mPPARdeltaLBD = biological target: T1, mPPARdeltaLBD (Mus musculus, UniProt P35396); experiment: PPARdelta transactivation assay (mPPARdeltaLBD)
T1 construct: expressed in transfected cells
T1 sequence (P35396 210-438 limits assumed): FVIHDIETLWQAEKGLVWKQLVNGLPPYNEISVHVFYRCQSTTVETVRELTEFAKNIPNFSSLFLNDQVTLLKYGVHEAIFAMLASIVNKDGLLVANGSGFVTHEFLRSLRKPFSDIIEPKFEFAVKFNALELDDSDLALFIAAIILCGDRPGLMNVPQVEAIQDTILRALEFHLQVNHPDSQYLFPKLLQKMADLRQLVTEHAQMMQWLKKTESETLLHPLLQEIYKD
Description: This example describes a transactivation assay for determining PPARdelta modulating activity.
DPD and other ligands are tested for their ability to transactivate PPARdelta essentially as described in Example 1.

mPPARalphaLBD = biological target: T2, mPPARalphaLBD (Mus musculus, UniProt P23204); experiment: PPARalpha transactivation assay (mPPARalphaLBD)
T2 construct: expressed in transfected cells
T2 sequence (P23204 239-466 limits assumed): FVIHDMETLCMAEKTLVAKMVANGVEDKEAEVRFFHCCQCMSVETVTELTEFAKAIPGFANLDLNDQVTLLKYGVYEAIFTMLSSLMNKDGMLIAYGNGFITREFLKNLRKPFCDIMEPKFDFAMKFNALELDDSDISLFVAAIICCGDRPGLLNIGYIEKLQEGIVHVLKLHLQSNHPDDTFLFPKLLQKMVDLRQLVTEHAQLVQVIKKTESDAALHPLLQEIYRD
Description: This example describes a transactivation assay for determining PPARalpha modulating activity.
DPD and other ligands are tested for their ability to transactivate PPAR alpha essentially as described in Example 1.

[1] = system: PPARgamma ligand-binding domain (Gal4-PPARgammaLBD); experiment: PPARgamma transactivation assay (Gal4-PPARgammaLBD, UASx4-TK luc reporter)
Text: This is an example of a transactivation assay for determining PPAR gamma modulating activity.
The UASx4-TK-luc reporter construct (where UAS refers to “upstream activator sequence”) contains four Gal4-responsive elements. The plasmid Gal4-PPARgammaLBD encodes a Gal4-DBD-PPARgamma-LBD fusion protein (i.e. the DNA-binding domain, DBD, of Gal4 fused to the ligand-binding domain, LBD, of PPARgamma) capable of transactivating the UASx4-TK-luc reporter plasmid by binding to the UAS. The CMV-beta-galactosidase plasmid (where CMV is cytomegalovirus) is used for normalization of experimental values.
The cells were replated, typically in 24 well plates, so that at the time of transfection the cells are 50-70% confluent.
Briefly, per well in a 24 well plate, UASx4TKluc (0.2 microg) Gal4-PPARgammaLBD (or pM-hPPARgamma-LBD; 0.1 microg) and CMV-beta-galactosidase (0.05 microg) in 30 μL DMEM (free of serum and antibiotics) is mixed with 30 microL DMEM (free of serum and antibiotics) containing 1 microL metafectenein. The mixture is incubated at room temperature for 20 min to allow formation of nucleic acid-lipid complexes and then approximately 60 microL is added to each well containing the 50-60% confluent cells. […] Cells were harvested after 12-24 hours and luciferase and beta-galactosidase activities were measured according to standard protocols.
“−” means that testing was not performed.

hRXRαLBD = biological target: T3, hRXRαLBD (Homo sapiens, UniProt P19793); experiment: RXR transactivation assay (hRXRαLBD)
T3 construct: expressed in transfected cells
T3 sequence (P19793 227-458 limits assumed): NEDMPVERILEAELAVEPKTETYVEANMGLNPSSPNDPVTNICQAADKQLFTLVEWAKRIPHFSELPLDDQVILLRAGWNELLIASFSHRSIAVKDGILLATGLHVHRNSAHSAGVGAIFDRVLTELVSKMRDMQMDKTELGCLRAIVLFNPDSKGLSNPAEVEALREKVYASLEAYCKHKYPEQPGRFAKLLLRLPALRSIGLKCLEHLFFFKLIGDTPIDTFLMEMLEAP
Description: This example describes a retinoic acid X receptor transactivation assay.
Compounds are tested for their ability to transactivate RXR essentially as described in Example 1.

HaCaT = experiment: Proliferation of non-cancer cell line HaCaT, flow cytometry; details: 20 microM, 48 hours of treatment
Description: (§1) A human cervical carcinoma cell line (HeLa) engineered to stably express a recombinant biosensor reporter activity and a non-cancer cell line, HaCaT (Boukamp et al., 1988, J. Cell Biol 106(3):761-771) was used with a Caspa Tag kit (commercially available eg from Chemicon). The detection of proliferation was carried out using a high content screening automated flow cytometer.
(§2) DPD (Substance 1) was diluted to 20 microM in cell culture medium without serum adjusted to 1% DMSO. Detection of cellular events was performed in duplicate in 96-well plates after 48 hours of treatment in the FL2 (dilution of a proliferative marker) channels of a HTS flow cytometer (FACS Calibur HTS, Becton Dickenson). At day 1, cells were seeded in 96 well plates. Cells were treated with DPD and the appropriate controls on day 2 and analysis was carried out on day 4.

[2] = system: human cervical carcinoma cell line (HeLa); experiment: Inhibition of cancer cell proliferation, HeLa, flow cytometry; details: 48 hours of treatment, read-out: inhibition of proliferation of HeLa cells
Description: as §1, §2

human pre-adipocytes = experiment: Adipocyte differentiation assay using human pre-adipocytes; details: similar to DMSO
3T3-L1 cells = experiment: Adipocyte differentiation assay, inhibition, Oil Red O staining
Description: To test compounds as inhibitors of adipocyte differentiation, 3T3-L1 cells are grown as above until two-day postconfluence (designated day 0), after which the cells are induced to differentiate with DMEM containing 10% fetal bovine serum (FBS), 1 μM dexamethasone (Sigma), 0.5 mM methylisobutylxanthine (Sigma), 1 μg/ml insulin (Roche Molecular Biochemicals) and the test-compound. Cells induced to differentiate in presence of solvent of the test-compounds are used as positive control. After 48 h, the cells are re-fed with DMEM containing 10% FBS supplemented with the test compound or the positive control. From day 4, cells are grown in DMEM with 10% FBS and are changed every second day until day 8. At day 8, cells are stained with Oil Red O as described below.
Cells cultured as described above are used for Oil Red staining. Dishes are washed in PBS and cells were fixed in 3.7% paraformaldehyde for 1 h and stained with oil red O as described in (Hansen et al 1999). Oil red O solution stock solution is prepared by dissolving 0.5 g of Oil Red O (Sigma) in 100 ml of isopropanol. Oil re O working solution is prepared by diluting a stock solution with water (6:4) followed by filtration.

O=C(O)CC/C=C\C[C@@H]1CO[C@H](c2ccccc2Cl)O[C@@H]1c1ccccc1O (racemic) [SN1, 4-(Z)-6-(2-o-chlorophenyl-4-o-hydroxyphenyl-1,3-dioxan-cis-5-yl) hexenoic acid]
increase of PPAR delta transactivation (mPPARdeltaLBD): no or little increase in transactivation | increase of PPAR alpha transactivation (mPPARalphaLBD): no transactivation | PPAR gamma modulating activity, in words [1]: PPAR gamma agonist | increase of RXR transactivation (hRXRαLBD): no transactivation | effect on the non-cancer cell line HaCaT (HaCaT): no effect | inhibition at 20 µM [2]: 90% | red staining in human pre-adipocytes (human pre-adipocytes): very little red staining | inhibition of adipocyte differentiation (3T3-L1 cells): no significant effect
